# Data as given in patent US6887878B2, “KMST isoeugenol derivatives and pharmaceutical activity” (Ing-Jun Chen, priority 2003, dated 2005).
# Read-outs that look alike come from different tables or passages of the source.
# Columns and labels:
# α1-adrenergic receptor = test: noradrenaline-induced contraction in isolated rat thoracic aorta (pA2); set-up: species or system Wistar rat; settings: Schild plot, mean ± SEM of eight
# Description: Clonidine, noradrenaline and serotonin (10^−8˜10^−4 M) were added to the bath to induce contractions after pretreatment with KMST for 15 min.
# [1] = system: serotonin-induced human platelet aggregation; test: serotonin-induced human platelet aggregation; assay type: cell-based; settings: Homo sapiens, Platelet; read-out: IC50 serotonin-induced platelet aggregation
# Description: Venous blood from human volunteer donors was collected in 10 ml Monovette containing 1 ml citrate solution (0.106M trisodium citrate; Sarstedt, Nümbrecht, Germany) and centrifuged (400 g, 10 min, 20° C.). […] After centrifugation (10 min, 2000 g, 20° C.), the platelet pellet was resuspended in wishing buffer (113 mM NaCl, 4 mM Na2HPO4, 24 mM NaH2PO4, 4 mM KCl, 0.2 mM EGTA(Ethylene glycol-bis-(2-aminoethyl ether) N,N,N′-tetraacetic acid), 0.1% (wt/vol) glucose, pH 6.0) and recentrifuged (10 min, 2000 g, 20° C.). The washed platelets were resuspended in incubation buffer (134 mM NaCl, 12 mM NaHCO3, 2.9 mM KCl, 0.34 mM NaH2PO4, 5 mM HEPES (N-(2-hydroxyethyl) piperazine-N′-(2-ethanesulfonic acid)), 5 mM glucose, pH7.4), cells were counted in a Sysmex hematology analyzer (Sysmex, CDA-500, Japan) and adjusted to a final concentration of 2×10^8 platelets/ml.
# The aggregation of the platelets in platelet-rich plasma (PRP) was measured as a change in light absorbance by a Payton dual-channel aggregometer (NBS, Hema tracer, Japan). PRP (240 μL) was stirred (700 rpm) at 37° C. for 1 min, and 5 μL epinephrine (final concentration 5 μM), serotonin (final concentration 5 μM) was added. After which the rate of primary aggregation (1/min) and maximum aggregation (%) at 5 min were recorded. To study the effects of compounds on epinephrine or serotonin-induced aggregation, PRP was incubated with 5 μL of compounds at various concentrations for 1 min before epinephrine or serotonin was added. IC50 values given were calculated from the secondary aggregation data.
# 5-HT1B = target: T1, 5-HT1B (Rattus norvegicus, UniProt P28564); test: [3H]GR125743 receptor binding in rat cortex; set-up: species or system Wistar rat; settings: [3H]GR125743 (5-HT1B/1D), rat cortex; read-out: Ki 5-HT1B
# T1 construct: from tissue; host or cells: Wistar rat cortex membranes
# Description: (§1) The homogenate was pressure filtered through muslin. Filtrate was centrifuged at 1000 g for 10 min. […] Protein content was determined by Bradford's method.
# 5-HT1A = target: T2, 5-HT1A (Rattus norvegicus, UniProt P19327); test: [3H]WAY100635 receptor binding
# T2 sequence (P19327 1-422): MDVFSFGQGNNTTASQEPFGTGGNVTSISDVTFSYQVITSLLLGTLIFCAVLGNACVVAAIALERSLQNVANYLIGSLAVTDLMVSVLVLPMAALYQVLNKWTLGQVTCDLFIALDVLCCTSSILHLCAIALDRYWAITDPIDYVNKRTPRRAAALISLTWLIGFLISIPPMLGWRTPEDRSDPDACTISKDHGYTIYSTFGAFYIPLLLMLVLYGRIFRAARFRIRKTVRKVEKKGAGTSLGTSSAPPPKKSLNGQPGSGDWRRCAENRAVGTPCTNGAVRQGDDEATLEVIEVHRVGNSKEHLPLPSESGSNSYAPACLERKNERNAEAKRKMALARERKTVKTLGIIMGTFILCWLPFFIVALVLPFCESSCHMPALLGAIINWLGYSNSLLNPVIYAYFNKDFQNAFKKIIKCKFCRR
# α2 receptors = test: [3H]yohimbine receptor binding in rat cortex; set-up: species or system Wistar rat
# Description: as §1
# α1 receptors = test: [3H]prazosin receptor binding in rat cortex; set-up: species or system Wistar rat
# Description: as §1
# β1 receptors = target: T3, β1 receptors (Rattus norvegicus, UniProt P18090); test: [3H]CGP-12177 receptor binding in rat ventricle; set-up: species or system Wistar rat; settings: [3H]CGP-12177, rat ventricle
# T3 construct: from tissue; host or cells: Wistar rat heart (ventricle) membranes
# Description: as §1
# anesthetized rats [2] = test: intra-cisternal injection and NTS microinjection, BP and HR; assay type: in vivo, rat; settings: for BP and HR after intra-cisternal injection and NTS microinjection: central administration
# Description: Intra-cisternal injections of KMST (0.3, 0.03 μmol), yohimbine [0.03 μmol), and clonidine (38 pmol), were performed in rats as described by Duan et al (1987). Briefly, rats weighing 250-300 g were anaesthetized with pentobarbital sodium (50 mg kg^−1, i.p.) and mounted in a David-Kopf stereotaxic instrument (Yeh J L. et al., Brain. Res. Bull., 30:641-648, 1993). The calvarium was exposed and a 1 mm diameter trephine hole was drilled 1.8 mm lateral to the coronary and 1.5 mm posterior to the sagittal sutures. A cannula (0.7 mm O.D.) connected to a Hamilton syringe (RN-705, 5051) by PE-50 was advanced 4.7 mm into the brain using the electrode carrier.
# Rats were anesthetized and placed in a David-Kopf stereotaxic instrument. The cerebellum was exposed after removing the skin and occipital bone. The NTS coordinates were (reference to lambda) P 5-6 mm, L/R 0.5-1 mm, depth 6-7.5 mm (Wu et al., 1994). NTS injection sites were confirmed by decreasing BP and HR following micro-injection of 1% L-glutamate. […] Pre-treatment with clonidine was performed 15 min before administration of test agents. At the end of experiments, the animals were sacrificed. The brain was removed and sectioned for histological confirmation of the drug application site.
# [3] = system: IL-1β, IL-6, IFN-γ and TNF-α; test: LPS-induced plasma cytokine immunoreactivity; assay type: in vivo, rat; settings: for LPS-induced elevations of IL-1β, IL-6, IFN-γ and TNF-α levels: 1 mg kg−1, i.v., pretreatment
# Description: (§2) In brief, Wistar rats weighing 250-300 g were anesthetized with pentobarbital sodium (50 mg kg^−1, i.p.). Following tracheal cannulation, systemic arterial BP and HR were recorded from the femoral artery by a pressure transducer (model P10EZ; Spectramed, Oxnard, Calif., U.S.A.) connected to a recorder (GOULD, Valley View, Ohio, Model P50). Body temperature was maintained at 37° C. by an electric heating pad. A femoral vein was cannulated for intravenous injection of drugs and LPS (10 mg kg^−1).
# Blood was collected from venous cannula, injected into ice-cold heparinized Eppendorf tubes and centrifuged at 1500 rpm for 10 min at 4° C. Plasma supernatant was stored at −70° C. until analyzed. Solid phase enzyme immunoassay that specifically detects murine IL-1β, IL-6, IFN-γ and TNF-α was used with a detection limit of >10 pg/ml (Endogen, U.S.A). Pre-treatment with KMST and other agents was performed 15 minutes before intravenous injection of LPS. Blood was collected from venous cannula. Blood glucose was measured with a glucose test strip (Glucotide, Bayer, U.S.A) at 1, 3 and 5 hours.
# anesthetized rats [4] = test: LPS-induced hypotension; assay type: in vivo, Wistar rat; settings: pretreatment, intravenous LPS
# Description: as §2
# [5] = system: phenylephrine-induced contractions in rat thoracic aorta; test: LPS-induced vascular hyporeactivity: phenylephrine-induced contractions in rat thoracic aorta; assay type: in vivo, Wistar rat; settings: pD2 to phenylephrine
# [6] = system: lipid peroxidation in rat brain homogenate; test: lipid peroxidation initiated by Fe2+-ascorbic acid in rat brain homogenates (TBARS); assay type: biochemical; settings: rat brain homogenates; read-out: IC50 inhibiting lipid peroxidation initiated by Fe2+-ascorbic acid
# Description: Rat brain homogenate was made in 0.9% saline containing 10 mg tissue/ml. The rates of membrane lipid peroxidation were measured by the formation of thiobarbituric acid (TBA)-reactive substance (TBARS). Rat brain homogenates (1 ml) were incubated at 37° C. for 5 min with 10 μl of test compound or vehicle. […] After 30 min of incubation, the reaction was stopped by adding 0.1 ml of 0.2% BHT. TBA reagent was then added and the mixture was heated for 30 min in a boiling water bath. […] The amount of TBARS was quantified using the linear regression obtained from malondialdehyde (MDA) standards.
# [7] = system: epinephrine-induced human platelet aggregation; settings: Mustonen et al., 2000; read-out: estimated IC50 to inhibit epinephrine-induced platelet aggregation; cited from earlier work
# 5-HT2A receptor = 5-HT2A receptor (Rattus norvegicus, UniProt P14842); test: [3H]ketanserin receptor binding in rat cortex; set-up: from tissue; host or cells: Wistar rat cortex membranes; species or system Wistar rat
# Description: as §1
# β2 receptors = target: T4, β2 receptors (Rattus norvegicus, UniProt P10608); test: [3H]CGP-12177 receptor binding in rat lung; set-up: species or system Wistar rat; settings: [3H]CGP-12177, rat lung
# T4 construct: from tissue; host or cells: Wistar rat lung membranes
# Description: as §1
# [8] = agent given after LPS injection (1 hr)
# [9] = agent given before LPS injection (30 min)
# T3 sequence (P18090 whole entry): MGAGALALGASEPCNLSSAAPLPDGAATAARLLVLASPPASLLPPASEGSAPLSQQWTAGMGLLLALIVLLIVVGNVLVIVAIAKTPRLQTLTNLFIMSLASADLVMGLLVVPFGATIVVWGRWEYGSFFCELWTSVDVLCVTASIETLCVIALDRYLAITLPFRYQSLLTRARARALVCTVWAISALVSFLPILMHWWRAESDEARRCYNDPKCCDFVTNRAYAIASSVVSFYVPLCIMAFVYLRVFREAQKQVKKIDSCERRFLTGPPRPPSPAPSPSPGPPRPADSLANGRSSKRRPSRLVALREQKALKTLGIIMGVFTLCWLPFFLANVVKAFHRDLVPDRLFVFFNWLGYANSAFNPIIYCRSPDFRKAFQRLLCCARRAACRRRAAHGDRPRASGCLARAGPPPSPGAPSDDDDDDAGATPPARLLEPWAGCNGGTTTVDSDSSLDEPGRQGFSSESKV
# T4 sequence (P10608 whole entry): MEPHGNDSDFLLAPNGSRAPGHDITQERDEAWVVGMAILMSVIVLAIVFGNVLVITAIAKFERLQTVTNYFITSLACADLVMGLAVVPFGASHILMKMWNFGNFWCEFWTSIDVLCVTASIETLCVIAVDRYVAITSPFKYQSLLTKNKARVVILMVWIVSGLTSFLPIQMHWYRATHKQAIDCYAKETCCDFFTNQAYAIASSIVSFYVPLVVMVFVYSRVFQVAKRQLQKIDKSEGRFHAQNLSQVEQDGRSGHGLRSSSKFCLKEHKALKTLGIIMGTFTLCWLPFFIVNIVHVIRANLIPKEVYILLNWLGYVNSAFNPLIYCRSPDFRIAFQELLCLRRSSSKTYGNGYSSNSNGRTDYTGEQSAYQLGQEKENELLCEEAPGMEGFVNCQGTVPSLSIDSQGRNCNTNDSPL
# Sequence of 5-HT2A receptor (P14842 whole entry): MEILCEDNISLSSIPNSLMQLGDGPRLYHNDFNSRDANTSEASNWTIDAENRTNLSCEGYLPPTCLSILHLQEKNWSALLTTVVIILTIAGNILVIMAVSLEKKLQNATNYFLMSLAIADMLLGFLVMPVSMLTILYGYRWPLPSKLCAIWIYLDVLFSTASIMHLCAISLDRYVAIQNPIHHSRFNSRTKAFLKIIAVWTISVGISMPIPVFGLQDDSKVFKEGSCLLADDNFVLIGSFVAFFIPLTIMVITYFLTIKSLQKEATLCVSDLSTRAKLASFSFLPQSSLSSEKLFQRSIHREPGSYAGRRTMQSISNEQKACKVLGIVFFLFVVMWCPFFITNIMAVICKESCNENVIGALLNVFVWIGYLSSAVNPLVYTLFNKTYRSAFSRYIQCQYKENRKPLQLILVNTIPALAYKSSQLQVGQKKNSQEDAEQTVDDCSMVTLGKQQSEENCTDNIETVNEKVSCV
# T1 sequence (P28564 whole entry): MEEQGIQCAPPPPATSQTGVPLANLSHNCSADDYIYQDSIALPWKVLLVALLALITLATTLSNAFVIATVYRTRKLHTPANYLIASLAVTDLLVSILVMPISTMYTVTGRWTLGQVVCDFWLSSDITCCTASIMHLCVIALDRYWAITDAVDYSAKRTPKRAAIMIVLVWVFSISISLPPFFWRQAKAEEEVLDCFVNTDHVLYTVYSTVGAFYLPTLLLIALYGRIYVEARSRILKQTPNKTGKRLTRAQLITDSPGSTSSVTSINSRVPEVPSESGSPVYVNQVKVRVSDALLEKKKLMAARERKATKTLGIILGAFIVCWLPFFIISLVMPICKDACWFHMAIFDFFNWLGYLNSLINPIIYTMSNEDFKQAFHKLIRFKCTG
compound,measurement,setting,value
"O=C(c1ccc(F)cc1)C1CCN(CCn2c(=O)[nH]c3ccccc3c2=O)CC1 [Ketanserin, reference compound]",α1 pA2 value,α1-adrenergic receptor,7.74 ± 0.32
same,IC50,[1],10 nM
same,Ki,5-HT1B,> 10000 nM
same,Ki,5-HT1A,> 10000 nM
same,Ki,α2 receptors,2270 nM
same,Ki,α1 receptors,15.8 nM
"CC(CCc1ccccc1)NCC(O)c1ccc(O)c(C(N)=O)c1 (centres unmarked) [Labetalol, reference compound]",Ki,β1 receptors,4.17 nM
same,Ki,α1 receptors,52.5 nM
O=c1n(CCCN2CCN(c3cccc(Cl)c3)CC2)nc2ccccn12 [Trazodone],BP and HR after intra-cisternal injection and NTS microinjection,anesthetized rats [2],increased BP and HR
same,"LPS-induced elevations of IL-1β, IL-6, IFN-γ and TNF-α levels",[3],reduced only IL-1β and TNF-α
same,aortic hyporeactivity and second prolonged hypotensive reaction induced by LPS,anesthetized rats [4],inhibited
same,pD2 at 3rd hr,[5]; [8],6.01 ± 0.09
same,pD2 at 5th hr,[5]; [8],5.04 ± 0.11
same,pD2 at 3rd hr,[5]; [9],6.29 ± 0.21
same,pD2 at 5th hr,[5]; [9],3.99 ± 0.16
COC(=O)[C@@H]1[C@H]2C[C@H]3c4[nH]c5ccccc5c4CCN3C[C@@H]2CC[C@@H]1O [Yohimbine],BP and HR after intra-cisternal injection and NTS microinjection,anesthetized rats [2],increased BP and HR
same,clonidine-induced bradycardia,anesthetized rats [2]; low dose (0.03 μmol),did not inhibit
same,clonidine-induced hypotension,anesthetized rats [2]; low dose (0.03 μmol),reduced
same,IC50,[6],11100 ± 350 nM
same,IC50,[7],980 nM
same,"LPS-induced elevations of IL-1β, IL-6, IFN-γ and TNF-α levels",[3],reduced only IL-1β and TNF-α
same,LPS-induced production of IFN-γ,[3]; 1 hour after LPS administration,insignificantly enhanced
same,aortic hyporeactivity and second prolonged hypotensive reaction induced by LPS,anesthetized rats [4],inhibited
same,pD2 at 3rd hr,[5]; [8],6.12 ± 0.14
same,pD2 at 5th hr,[5]; [8],5.13 ± 0.26
same,pD2 at 3rd hr,[5]; [9],6.73 ± 0.33
same,pD2 at 5th hr,[5]; [9],3.44 ± 0.22
Isoeugenodilol [reference compound],Ki,5-HT2A receptor,1010 nM
same,Ki,β1 receptors,43.6 nM
same,Ki,β2 receptors,53.7 nM
same,Ki,α2 receptors,9700 nM
same,Ki,α1 receptors,38.9 nM
Isoeugenolol [reference compound],Ki,5-HT2A receptor,585 nM
same,Ki,β1 receptors,209 nM
same,Ki,β2 receptors,6860 nM
same,Ki,α2 receptors,> 10000 nM
same,Ki,α1 receptors,> 10000 nM
Methsergide [reference compound],Ki,5-HT1B,> 10000 nM
same,Ki,"5-HT1A; read-out: Ki 5-HT1A, [3H]WAY100635",> 10000 nM
same,Ki,α2 receptors,2430 nM
same,Ki,α1 receptors,> 10000 nM
